Test results reported in article PMC12559310, “Tumor-targeted top1 inhibitor delivery with optimized parp inhibition in advanced solid tumors: a phase i trial of gapped scheduling” (Nature Communications, 2025).
Like-named read-outs stand apart in the source and are kept apart here.

Columns and labels:
DNA damage = system: DNA damage; design: method as in earlier work; settings: preclinical studies, transient, declining thereafter; cited from earlier work
rat = system: rat; design: method as in olaparib Investigator’s Brochure; settings: rat Irwin test, at the doses studied; ref olaparib Investigator’s Brochure; cited from earlier work
BRCP = settings: in vitro; cited from earlier work
[1] = Olaparib peak plasma concentration (2 h post-oral administration); assay type: in vivo, human
Method: Approximately 4 mL of blood was collected into a sodium heparin tube (BD Biosciences), immediately processed into plasma before storage in cryovials at − 80 °C. […] Total CPT, polymer-unconjugated CPT, and olaparib plasma concentrations were measured using previously published assays[53],[54]. Polymer-conjugated CPT plasma concentrations were obtained via subtracting the polymer-unconjugated concentration from the total CPT concentration.
First dose pharmacokinetic parameters were calculated using noncompartmental methods (Phoenix WinNonlin 8.0, Certara Pharsight Corp, Cary, NC). Any plasma concentration measured below the LLOQ was excluded from analyses. The maximum plasma concentration (CMAX) and time to CMAX (TMAX) were recorded as observed values. The area under the plasma concentration vs time curve to the last observed time point (AUCLAST) was calculated using the Linear Up Log Down trapezoidal rule. The elimination rate (kEL) was calculated as the slope of the log-transformed concentrations vs terminal time points. AUC extrapolated to time infinity (AUCINF) was calculated as AUCLAST + CLAST/kEL, where CLAST is the concentration at the last observed time point. Half-life (t1/2) was calculated as ln2/kEL. Apparent oral clearance (CL/F) was calculated as dose/AUCINF; volume of distribution at steady-state (Vss) was calculated via the product of mean residence time extrapolated to infinity (MRTINF) and […]. Pharmacokinetic parameters were calculated for each individual and summarized using the arithmetic mean ± standard deviation (SD).

CYP3A4 [2] = settings: in vitro; cited from earlier work
target organ of toxicity = system: target organ of toxicity; design: method as in olaparib Investigator’s Brochure; settings: toxicology studies; ref olaparib Investigator’s Brochure; cited from earlier work
CYP2B6 = settings: in vitro; cited from earlier work
CYP3A4 [3] = settings: in vitro; cited from earlier work; remark: listed apart in the source
P-gp = settings: in vitro; cited from earlier work
SCLC cell lines = system: SCLC cell lines; design: method as in protocol [5]; settings: pre-clinical models of SCLC; ref protocol [5]; cited from earlier work
MATE1 = settings: in vitro; cited from earlier work
OAT3 = settings: in vitro; cited from earlier work
MATE2K = settings: in vitro; cited from earlier work
[4] = system: patients with advanced solid tumors; test: Phase I dose escalation (3 + 3 design): DLTs and MTD/RP2D of CRLX101 plus olaparib; assay type: in vivo, human; settings: Olaparib 250 tab bid d3-13, 17-26 combined with CRLX101 12 mg/m2; % of single-agent MTD; Current study
From the text: Olaparib tablets were given at escalating doses across cohorts (as shown in Fig. 1), administered twice daily on days 3–13 and 17–26 of the treatment cycle.
A standard 3 + 3 design was used for dose escalation. […] DLTs were based on toxicities observed during the first cycle. […] Study treatment was discontinued if there was a > 3-week delay in reinstitution of treatment due to drug-related toxicity during a cycle. Dose reductions were allowed for toxicities. A maximum of two dose reductions were allowed. Dose re-escalation was not allowed.

OCT1 = settings: in vitro; cited from earlier work
CYP3A4 [5] = settings: in vitro; cited from earlier work; remark: listed apart in the source
patients = settings: tablet BID; protocol rationale; cited from earlier work
OATP1B1 = settings: in vitro; cited from earlier work
OCT2 = settings: in vitro; cited from earlier work
CYP1A2 = settings: in vitro; cited from earlier work
anaesthetized dog = system: anaesthetized dog; design: method as in olaparib Investigator’s Brochure; settings: at the doses studied, ref olaparib Investigator’s Brochure; cited from earlier work
[6] = system: patients with solid tumors; settings: Inv New Drugs, cited from earlier work

CC[C@@]1(O)C(=O)OCc2c1cc1n(c2=O)Cc2cc3ccccc3nc2-1 [camptothecin, 20(S)-camptothecin]
time of peak of camptothecin-induced DNA damage (DNA damage): 24 to 48 h

O=C(c1cc(Cc2n[nH]c(=O)c3ccccc23)ccc1F)N1CCN(C(=O)C2CC2)CC1 [olaparib]
behavioural, autonomic or motor effects (rat): no noticeable | BRCP inhibition (BRCP): weak inhibitor | dose dependence of peak concentrations ([1]; 100-300 mg, 2 hours post-dose): increased proportionally with the dose | CMAX ([1]; Olaparib dose 100 mg, N 2, 2 h post-dose, mean ± SD): 2843.1 ± 947.62 ng/mL | CMAX ([1]; Olaparib dose 150 mg, N 5, 2 h post-dose, mean ± SD): 2359.8 ± 1548.0 ng/mL | CMAX ([1]; Olaparib dose 200 mg, N 3, 2 h post-dose, mean ± SD): 4496.7 ± 2375.2 ng/mL | CMAX ([1]; Olaparib dose 300 mg, N 6, 2 h post-dose, mean ± SD): 5594.6 ± 4132.4 ng/mL | Cmax at 2 h ([1]; human, plasma, oral, Olaparib dose 250 mg, N 7, 2 h post-dose, mean ± SD): 6340 ± 4870 ng/mL | principal enzyme forming the 3 main metabolites (CYP3A4 [2]): CYP3A4 | target organ of toxicity (target organ of toxicity): bone marrow | CYP2B6 induction (CYP2B6): Induction | CYP3A4 inhibition (CYP3A4 [3]): inhibits CYP3A4 in vitro | P-gp inhibition (P-gp): inhibitor | single agent activity (SCLC cell lines): striking single agent activity in a majority of SCLC cell lines tested | MATE1 inhibition (MATE1): inhibitor | OAT3 inhibition (OAT3): inhibitor | MATE2K inhibition (MATE2K): inhibitor | PARPi % of MTD [4]: 83% | OCT1 inhibition (OCT1): inhibitor | CYP3A4 induction (CYP3A4 [5]): Induction | single-agent maximum tolerated dose (MTD) (patients): 300 mg | OATP1B1 inhibition (OATP1B1): inhibitor | OCT2 inhibition (OCT2): inhibitor | CYP1A2 induction (CYP1A2): Induction | effects on cardiovascular or respiratory parameters (anaesthetized dog): no noticeable | PARPi % of MTD ([6]; Olaparib 50 mg bid d1-5 with Irinotecan 125 mg/m2 q2w, ref Chen, 2016): 12% | PARPi % of MTD ([6]; Olaparib 50 mg qd d1-21 with Irinotecan 200 mg/m2 q3w, ref Chen, 2016): 6% | PARPi % of MTD ([6]; Olaparib 100 mg bid d1-21 with Topotecan 1 mg/m2/d1-3, ref Samol, 2012): 25%
